Assay results as given in patent US7659277B2, “Ubiquitin ligase inhibitors and methods related thereto” (Proteologies, Ltd., priority 2003, dated 2010).
Read-outs that look alike come from different tables or passages of the source.

How the values were obtained:
POSH = molecular target: T1, POSH (Homo sapiens, UniProt Q7Z6J0); experiment: IC50 assay procedure: GST-POSH auto-ubiquitination, homogeneous time-resolved fluorescence (Ub-cryptate / anti-GST XL665); format: biochemical; conditions: ubiquitin ligase activity of POSH; GST-POSH 33 nM, 30 min preincubation
T1 construct: GST-POSH lot NB81/p.118 3.6 mg/ml; fused on or other part: GST tag, used for detection with anti-GST XL665
T1 sequence (Q7Z6J0 1-269 limits assumed): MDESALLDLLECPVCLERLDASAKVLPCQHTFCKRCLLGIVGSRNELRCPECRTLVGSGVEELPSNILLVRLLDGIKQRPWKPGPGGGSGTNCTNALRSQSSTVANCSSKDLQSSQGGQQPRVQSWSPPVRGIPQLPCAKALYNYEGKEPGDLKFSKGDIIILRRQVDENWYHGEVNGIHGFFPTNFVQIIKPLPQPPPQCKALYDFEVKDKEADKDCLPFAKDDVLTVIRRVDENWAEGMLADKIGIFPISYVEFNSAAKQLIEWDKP
How it was run: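 GST-POSH (33 nM) preincubated 30 min at RT with compounds (DMSO dilution series), then added to E1/E2/Eu-cryptate-ubiquitin enzyme mix for 30 min at 37 °C. Stopped with EDTA, anti-GST XL665 added 45 min at RT; HTRF signal of POSH auto-ubiquitination read, triplicates, IC50 from concentration series.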

Hmdm2 = Hmdm2 (Homo sapiens, UniProt Q00987); experiment: Selectivity (% A in 1 μM), ubiquitin ligase activity of Hmdm2; format: biochemical; conditions: read-out: Selectivity (% A* in 1 μM) Hmdm2
Hmdm2, sequence (Q00987 whole entry): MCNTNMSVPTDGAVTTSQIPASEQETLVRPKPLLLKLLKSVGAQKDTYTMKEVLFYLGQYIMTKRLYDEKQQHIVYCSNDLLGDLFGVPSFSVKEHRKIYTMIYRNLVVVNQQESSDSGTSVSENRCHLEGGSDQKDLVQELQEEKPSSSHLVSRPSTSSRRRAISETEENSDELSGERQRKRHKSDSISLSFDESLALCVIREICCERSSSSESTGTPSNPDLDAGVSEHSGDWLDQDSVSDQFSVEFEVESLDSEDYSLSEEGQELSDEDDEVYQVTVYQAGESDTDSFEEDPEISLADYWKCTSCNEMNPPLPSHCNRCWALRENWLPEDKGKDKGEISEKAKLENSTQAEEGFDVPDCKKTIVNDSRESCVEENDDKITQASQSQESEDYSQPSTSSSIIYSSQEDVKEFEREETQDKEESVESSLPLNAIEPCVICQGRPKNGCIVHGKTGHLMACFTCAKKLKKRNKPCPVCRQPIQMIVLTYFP

HIV-1 = experiment: HIV maturation (budding) in virus-like particle assay, HIV-1 p24 antigen ELISA; format: cell-based; conditions: Human immunodeficiency virus 1, read-out: Budding (3 μM)
Excerpt: Compounds were further assessed for effects on maturation of HIV particles in a virus-like particle assay.

c-cbl = c-cbl (Homo sapiens, UniProt P22681); experiment: Selectivity (% A in 1 μM), ubiquitin ligase activity of c-cbl; format: biochemical; conditions: % activity at 1 μM compound; control is related to 100% activity; HTS protocol
E2 protein = format: biochemical; conditions: % activity at 1 μM compound; control is related to 100% activity; HTS protocol
[1] = % activity at 1 μM compound, control is related to 100% activity, HTS protocol

SMILES | IC50 (POSH) [nM] | remaining activity at 1 µM (Hmdm2; [1]) [%] | remaining activity at 1 µM (Hmdm2) [%] | activity at 3 µM (HIV-1) [%] | remaining activity at 1 µM (c-cbl) [%] | Selectivity (% A* in 1 μM) E2 (E2 protein) [%]
CN(C)c1ccc(/C=C2/C(=O)NC(=O)N(C3CCCCC3)C2=O)cc1 [Compound 3] | 900 | 102 |  |  |  | 
O=C1NC(=O)N(c2ccccc2)C(=O)/C1=C\c1ccc2c(c1)OCO2 [Compound 4] | 800 | 105 |  |  |  | 
O=C(O)COc1ccc2c(c1)oc(=O)c1ccccc12 [Compound 85] | 700 |  | 94 | 59 |  | 
Cc1cc(O)c(C(=O)/C=C/c2cccc(I)c2)c(=O)o1 [Compound 87] | 800 |  | 119 | 29 |  | 
O=C(NC(C(Cl)(Cl)Cl)S(=O)(=O)c1ccccc1)c1ccc(Cl)cc1Cl (stereo not shown) [Compound 88] | 250 |  | 118 | 57 |  | 
COc1ccc(C(=O)CC2=C(O)C(=O)c3ccccc3C2=O)cc1 [Compound 89] | 1000 | 79 |  |  | 109 | 70
O=C1c2ccccc2-c2nc3nonc3nc21 [Compound 91] | 300 |  | 62 | 33 |  | 
O=C(/C=C/c1cccnc1)c1ccc(C(=O)/C=C/c2cccnc2)cc1 [Compound 92] | 500 | 105 |  |  | 111 | 125
Cc1ccc(C(=O)NN=C2CCC(=NNC(=O)c3ccc(C)cc3)CC2)cc1 [Compound 93] | 1300 | 106 |  |  | 84 | 78
O=C(Cc1ccccc1)N1N=CCC1(O)c1ccc(F)cc1 (stereo not shown) [Compound 94] | 1000 | 103 |  |  | 106 | 49
Cc1[nH]c(=O)c(C(=O)/C=C/c2ccccc2F)c2c1CCCC2 [Compound 95] | 1000 | 98 |  |  | 136 | 100
O=c1oc2ccccc2c(O)c1C(=S)Nc1ccccc1 [Compound 96] | 500 |  | 90 | 56 |  | 
O=C(Nc1cccc2c(NC(=O)C3C4CCCCC43)cccc12)C1C2CCCCC21 (stereo not shown) [Compound 97] | 600 |  | 123 | 64 |  | 
COC(=O)C1=C(C(=O)OC)SC(=C2C(=S)C(C)(C)N(C(C)=O)c3cc(C)ccc32)S1 [Compound 99] | 1500 | 101 |  |  | 88 | 89
COc1ccc(Nc2ccc(O)c3c2C(=O)c2ccccc2C3=O)cc1 [Compound 100] | 700 | 75 |  |  | 100 | 59
COc1cc(C2Nc3ccccc3NC3=C2C(=O)CC(C)(C)C3)cc(Br)c1O (stereo not shown) [Compound 102] | 800 | 97 |  |  | 111 | 99
Cc1cc(OC(=O)Cn2c(=O)sc3ccccc32)ccc1Cl [Compound 103] | 400 |  | 100 | 69 |  | 
O=C(NCc1ccc(Cl)cc1)C(=O)Nc1ccccc1 [Compound 104] | 1000 | 145 |  |  | 140 | 113
